Patent publication US20100216799A1, “PHTHALAZINE AND PYRIDO[3,4-D]PYRIDAZINE COMPOUNDS AS H1 RECEPTOR ANTAGONISTS” (Glaxo Group Limited, priority 2007, published 2010)

Columns and labels:
Assay type in all cases: cell-based
[1] = molecular target: T1, human H1 receptor (Homo sapiens, UniProt P35367); experiment: Histamine H1 functional antagonist assay (FLIPR): determination of antagonist pA2; details: CHO cells expressing H1 receptor, shift of histamine concentration response curve
T1 construct: expressed in transfected cells
Method: The human H1 receptor is cloned using known procedures described in the literature [Biochem. Biophys. Res. Commun., 201(2):894 (1994)]. Chinese hamster ovary (CHO) cells stably expressing the human H1 receptor are generated according to known procedures described in the literature [Br. J. Pharmacol., 117(6):1071 (1996)]. The histamine H1 receptor expressing CHO cells are seeded into non-coated black-walled clear bottom 96-well tissue culture plates as described above. Following overnight culture, growth medium is removed from each well, washed with 200 μl PBS and is replaced with 50 μl loading dye (250 μM Brilliant Black, 1 μM Fluo-4 diluted in Tyrodes buffer+probenecid (145 mM NaCl, 2.5 mM KCl, 10 mM HEPES, 10 mM D-glucose, 1.2 mM MgCl2, 1.5 mM CaCl2, 2.5 mM probenecid, pH adjusted to 7.40 with NaOH 1.0 M)). Cells are incubated for 45 min at 37° C. The loading buffer is removed and the cells are washed as above, and 90 μl of Tyrodes buffer+probenecid is added to each well. 10 μl of test compound, diluted to the required concentration in Tyrodes buffer+probenecid (or 10 μl Tyrodes buffer+probenecid as a control) is added to each well and the plate is incubated for 30 min at 37° C., 5% CO2. The plates are then placed into a FLIPR™ (Molecular Devices, UK) to monitor cell fluorescence (λex=488 nm, λEM=540 nm) in the manner described in Sullivan et al., (In: Lambert DG (ed.), Calcium Signaling Protocols, New Jersey: Humana Press, 1999, 125-136) before and after the addition of 50 μl histamine over a concentration range of 1 mM-0.1 nM. The resultant concentration response curves are analysed by non-linear regression using a standard four parameter logistic equation to determine the histamine EC50, the concentration of histamine required to produce a response of 50% of the maximum response to histamine. The antagonist pA2 is calculated using the following standard equation: pA2=log(DR-1)−log [B] where DR=dose ratio, defined as EC50antagonist-treated/EC50control and [B]=concentration of antagonist.

[2] = molecular target: T1, human H1 receptor; experiment: Histamine H1 functional antagonist assay (FLIPR): determination of functional pKi values; details: CHO cells expressing human H1 receptor, histamine at EC80, read-out: average pKa (pKb) at H1 (converted)
Method: (§1) The human H1 receptor is cloned using known procedures described in the literature [Biochem. Biophys. Res. Commun., 201(2):894 (1994)]. Chinese hamster ovary (CHO) cells stably expressing the human H1 receptor are generated according to known procedures described in the literature [Br. J. Pharmacol., 117(6):1071 (1996)].
The histamine H1 cell line is seeded into non-coated black-walled clear bottom 384-well tissue culture plates in alpha minimum essential medium (Gibco/Invitrogen, cat no. 22561-021), supplemented with 10% dialysed foetal calf serum (Gibco/Invitrogen cat no. 12480-021) and 2 mM L-glutamine (Gibco/Invitrogen cat no 25030-024) and is maintained overnight at 5% CO2, 37° C.
Excess medium is removed from each well to leave 10 μl. 30 μl loading dye (250 μM Brilliant Black, 2 μM Fluo-4 diluted in Tyrodes buffer+probenecid (145 mM NaCl, 2.5 mM KCl, 10 mM HEPES, 10 mM D-glucose, 1.2 mM MgCl2, 1.5 mM CaCl2, 2.5 mM probenecid, pH adjusted to 7.40 with NaOH 1.0 M)) is added to each well and the plates are incubated for 60 min at 5% CO2, 37° C.
10 μl of test compound, diluted to the required concentration in Tyrodes buffer+probenecid (or 10 μl Tyrodes buffer+probenecid as a control) is added to each well and the plate is incubated for 30 min at 37° C., 5% CO2. The plates are then placed into a FLIPR™ (Molecular Devices, UK) to monitor cell fluorescence (λex=488 nm, λEM=540 nm) in the manner described in Sullivan et al., (In: Lambert DG (ed.), Calcium Signaling Protocols, New Jersey: Humana Press, 1999, 125-136) before and after the addition of 10 μl histamine at a concentration that results in the final assay concentration of histamine being EC80.
Functional antagonism is indicated by a suppression of histamine induced increase in fluorescence, as measured by the FLIPR™ system (Molecular Devices). By means of concentration effect curves, functional affinities are determined using standard pharmacological mathematical analysis.

[3] = molecular target: T1, human H1 receptor; experiment: Histamine H1 functional antagonist assay (FLIPR): antagonist duration after washout; details: at one or more time points, typically 30-270 min
Method: as §1
To determine the antagonist duration, cells are cultured overnight in non-coated black-walled clear bottom 96-well tissue culture plates, are washed with PBS and are incubated with a concentration of antagonist chosen to give an approximate DR in the range 30-300. Following the 30 min antagonist incubation period, the cells are washed two or three times with 200 μl of PBS and then 100 μl Tyrodes buffer is added to each well to initiate antagonist dissociation. Following incubation for predetermined times, typically 30-270 min at 37° C., the cells are then washed again with 200 μl PBS and are incubated with 100 μl Tyrodes buffer containing Brilliant Black, probenecid and Fluo-4 for 45 min at 37° C., as described above. After this period, the cells are challenged with histamine in the FLIPR™ as described above. The dose ratio at each time point is used to determine the fractional H1 receptor occupancy by the following equation: fractional receptor occupancy=(DR-1)/DR. The decrease in receptor occupancy over time approximates to a straight line and is analysed by linear regression. The slope of this straight line fit is used as an index of the dissociation rate of the antagonist. The dose ratios for antagonist treated cells and for antagonist treated and washed cells at each time point are used to calculate a relative dose ratio (rel DR) which is also used as an index of antagonist duration. Antagonists with long duration of action produce rel DR values close to 1, and antagonists with short duration of action produce rel DR values that approaches the dose ratio value obtained for antagonist treatment alone.

T1 sequence (P35367 whole entry): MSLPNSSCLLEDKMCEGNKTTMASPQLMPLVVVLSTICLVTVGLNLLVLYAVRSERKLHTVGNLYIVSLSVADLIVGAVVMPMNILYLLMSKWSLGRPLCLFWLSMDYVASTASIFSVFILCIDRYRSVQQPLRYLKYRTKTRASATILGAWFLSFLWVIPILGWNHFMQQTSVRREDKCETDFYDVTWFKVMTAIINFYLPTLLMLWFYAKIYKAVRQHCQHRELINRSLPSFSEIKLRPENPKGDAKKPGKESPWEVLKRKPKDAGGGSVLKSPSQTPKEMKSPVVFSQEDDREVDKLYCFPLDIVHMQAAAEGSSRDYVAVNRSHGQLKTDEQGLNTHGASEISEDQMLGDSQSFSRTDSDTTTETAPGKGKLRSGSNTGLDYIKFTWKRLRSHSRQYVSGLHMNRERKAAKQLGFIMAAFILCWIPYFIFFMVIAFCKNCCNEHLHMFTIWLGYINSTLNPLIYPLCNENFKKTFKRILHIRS

| SMILES | Kb [1] | Kb [2] | duration of action compared with azelastine [3] |
| --- | --- | --- | --- |
| CCS(=O)(=O)CCN1CCC[C@@H]1Cn1nc(Cc2ccc(Cl)cc2)c2ccccc2c1=O [Example 1, 4-[(4-Chlorophenyl)methyl]-2-({(2R)-1-[2-(ethylsulfonyl)ethyl]-2-pyrrolidinyl}methyl)-1(2H)-phthalazinone] | < 1 nM | – | – |
| O=c1c2ccccc2c(Cc2ccc(Cl)cc2)nn1C[C@H]1CCCN1CCS(=O)(=O)N1CCCCC1 [Example 2, 4-[(4-Chlorophenyl)methyl]-2-({(2R)-1-[2-(1-piperidinylsulfonyl)ethyl]-2-pyrrolidinyl}methyl)-1(2H)-phthalazinone] | – | < 100 nM | – |
| CCS(=O)(=O)CCCN1CCC[C@@H]1Cn1nc(Cc2ccc(Cl)cc2)c2ccccc2c1=O [Example 3, 4-[(4-Chlorophenyl)methyl]-2-({(2R)-1-[3-(ethylsulfonyl)propyl]-2-pyrrolidinyl}methyl)-1(2H)-phthalazinone] | < 1 nM | – | longer duration of action than azelastine |
| CCS(=O)(=O)C(C)CCN1CCC[C@@H]1Cn1nc(Cc2ccc(Cl)cc2)c2ccccc2c1=O (stereo partly drawn) [Example 4, 4-[(4-Chlorophenyl)methyl]-2-({(2R)-1-[3-(ethylsulfonyl)butyl]-2-pyrrolidinyl}methyl)-1(2H)-phthalazinone] | < 1 nM | – | – |
| CCS(=O)(=O)[C@@H](C)CCN1CCC[C@@H]1Cn1nc(Cc2ccc(Cl)cc2)c2ccccc2c1=O [Example 5A, 4-[(4-Chlorophenyl)methyl]-2-({(2R)-1-[(3S)-3-(ethylsulfonyl)butyl]-2-pyrrolidinyl}methyl)-(2H)-phthalazinone] | < 10 nM | – | – |
| CCS(=O)(=O)[C@H](C)CCN1CCC[C@@H]1Cn1nc(Cc2ccc(Cl)cc2)c2ccccc2c1=O [Example 5B, 4-[(4-Chlorophenyl)methyl]-2-({(2R)-1-[(3R)-3-(ethylsulfonyl)butyl]-2-pyrrolidinyl}methyl)-(2H)-phthalazinone] | < 10 nM | – | – |
| CCS(=O)(=O)NCCN1CCC[C@@H]1Cn1nc(Cc2ccc(Cl)cc2)c2ccccc2c1=O [Example 6, N-[2-((2R)-2-{[4-[(4-Chlorophenyl)methyl]-1-oxo-2(1H)-phthalazinyl]methyl}-1-pyrrolidinyl)ethyl]ethanesulfonamide] | < 1 nM | – | longer duration of action than azelastine |
| CCCS(=O)(=O)NCCN1CCC[C@@H]1Cn1nc(Cc2ccc(Cl)cc2)c2ccccc2c1=O [Example 7, N-[2-((2R)-2-{[4-[(4-Chlorophenyl)methyl]-1-oxo-2(1H)-phthalazinyl]methyl}-1-pyrrolidinyl)ethyl]-1-propanesulfonamide] | < 1 nM | < 100 nM | longer duration of action than azelastine |

More lines, main results first:

| Kb [1] | Kb [2] | SMILES | duration of action compared with azelastine [3] |
| --- | --- | --- | --- |
| < 1 nM | < 100 nM | CC(C)S(=O)(=O)NCCN1CCC[C@@H]1Cn1nc(Cc2ccc(Cl)cc2)c2ccccc2c1=O [Example 8, N-[2-((2R)-2-{[4-[(4-Chlorophenyl)methyl]-1-oxo-2(1H)-phthalazinyl]methyl}-1-pyrrolidinyl)ethyl]-2-propanesulfonamide] | longer duration of action than azelastine |
| < 10 nM | < 100 nM | COCCCNS(=O)(=O)CCN1CCC[C@@H]1Cn1nc(Cc2ccc(Cl)cc2)c2ccccc2c1=O [Example 10, 2-((2R)-2-{[4-[(4-Chlorophenyl)methyl]-1-oxo-2(1H)-phthalazinyl]methyl}-1-pyrrolidinyl)-N-[3-(methyloxy)propyl]ethanesulfonamide] | longer duration of action than azelastine |
| < 1 nM | – | CCCNC(=O)NCCN1CCC[C@@H]1Cn1nc(Cc2ccc(Cl)cc2)c2ccccc2c1=O [Example 11, N-[2-((2R)-2-{[4-[(4-Chlorophenyl)methyl]-1-oxo-2(1H)-phthalazinyl]methyl}-1-pyrrolidinyl)ethyl]-M-propylurea] | longer duration of action than azelastine |
| < 1 nM | – | CCS(=O)(=O)CCCN1CCC[C@@H]1Cn1nc(Cc2ccc(Cl)cc2)c2cnccc2c1=O [Example 12, 4-[(4-Chlorophenyl)methyl]-2-({(2R)-1-[3-(ethylsulfonyl)propyl]-2-pyrrolidinyl}methyl)pyrido[3,4-d]pyridazin-1(2H)-one] | longer duration of action than azelastine |
| < 10 nM | – | CCS(=O)(=O)CCN1CCC[C@@H]1Cn1nc(Cc2ccc(Cl)cc2)c2cnccc2c1=O [Example 13, 4-[(4-Chlorophenyl)methyl]-2-({(2R)-1-[2-(ethylsulfonyl)ethyl]-2-pyrrolidinyl}methyl)pyrido[3,4-d]pyridazin-1(2H)-one] | – |
| < 1 nM | – | CCCNC(=O)NCCN1CCC[C@@H]1Cn1nc(Cc2ccc(Cl)cc2)c2cnccc2c1=O [Example 14, N-[2-((2R)-2-{[4-[(4-chlorophenyl)methyl]-1-oxopyrido[3,4-d]pyridazin-2(1H)-yl]methyl}-1-pyrrolidinyl)ethyl]-M-propylurea] | – |
